In general, IC50 refers to the concentration that gives 50% inhibition.

Like-named read-outs stand apart in the source and are kept apart here.

This note sets out measurements from article PMC9144829, “Histone Deacetylase Inhibitory Activity and Antiproliferative Potential of New [6]-Shogaol Derivatives” (Molecules, 2022).

Assay [1] relates to HDAC enzymes (HeLa nuclear extract, mixed-HDAC isoforms). The experiment in a line: Fluor-de-Lys HDAC activity assay kit, HeLa nuclear extract as source of HDAC enzymes. Type of assay: biochemical, human. To be noted: compounds at 100 µM. How it is done:
The in vitro HDAC inhibitions of the obtained compounds were carried out with the assay kit containing mixed-HDAC isoforms. […] Therefore, the results were not fully related. However, compounds with good binding affinities should have the potential to be specific HDAC inhibitors for each isoform.
The semi-synthetic derivatives were evaluated for their ability to inhibit HDAC enzymes. Inhibition of HDAC activity in vitro was assessed using the Fluor-de-Lys HDAC activity assay kit (Biomol, Enzo Life Sciences International, Inc., Farmingdale, NY, USA). The HeLa nuclear extract provided with the kit was used as a source of HDAC enzymes for the in vitro study. TSA was used as the positive control. The HeLa nuclear extract, substrate, buffer and inhibitors were incubated. Deacetylation of the substrate was performed next by adding a developer to generate a fluorophore. The spectra Max Gemini XPS microplate spectrofluorometer (Molecular Devices, San Jose, CA, USA) was used to measure fluorescence signal with excitation at 360 nm and emission at 460 nm. A decrease in fluorescence signal indicated an inhibition of HDAC activity. Trichostatin A (TSA) was used as a positive control. All experiments were carried out in triplicate.

The test system of the next assay is H-69 cells. The experiment in a line: MTT assay, H-69 cells. Type of assay: cell-based. As for the experimental part:
(§1) The MTT reduction assay was performed with non-cancer (Vero), human cervical cancer (HeLa), human colon cancer (HCT116), human breast adenocarcinoma cancer (MCF-7), and cholangiocarcinoma (H-69 […], KKU-100 and KKU-M213B) cell lines according to the previously described method. Briefly, cells were seeded in 96-well plates. The next day, cells were exposed to the selected compounds at various concentrations and incubated for 24, 48 and 72 h. After incubation, the culture medium was exchanged with 110 µL of MTT (0.5 mg/mL in PBS medium) and further incubated for 2 h. The amount of MTT formazan product was determined after dissolving in DMSO by measuring its absorbance with a microplate reader (Bio-Rad Laboratories, Hercules, CA, USA) at a test wavelength of 550 nm and a reference wavelength of 655 nm. The cell viability was expressed as a percentage of the viable cells of control culture conditions, and the IC50 values of each group were calculated.

Assay [2] has as its system human breast adenocarcinoma cancer (MCF-7) cells. The experiment in a line: MTT assay, MCF-7 cells. Type of assay: cell-based. As for the experimental part: as §1
(Formazan colour is commonly taken as a measure of viable cells.)

In assay [3] the test system is cholangiocarcinoma KKU-100 cells. The experiment in a line: MTT assay, KKU-100 cells. Type of assay: cell-based, human. How it is done:
as §1

The test system of assay [4] is human colon cancer (HCT116) cells. The experiment in a line: MTT assay, HCT116 cells. Type of assay: cell-based. How it is done: as §1
Assay [5] relates to human cervical cancer (HeLa) cells. The experiment in a line: MTT assay, HeLa cells. To be noted: read-out: IC50 Values (Mean ± SD; n = 3), HeLa cells. Type of assay: cell-based. As for the experimental part:
as §1

For assay [6], the system named is cholangiocarcinoma KKU-M213B cells. The experiment in a line: MTT assay, KKU-M213B cells. Type of assay: cell-based, human. To be noted: read-out: IC50 Values (Mean ± SD; n = 3). As for the experimental part:
as §1

A further assay deals with Vero cells. Description: MTT assay, non-cancer Vero cells. Type of assay: cell-based. The settings on record: Chlorocebus sabaeus, read-out: IC50 Values (Mean ± SD; n = 3). As for the experimental part:
as §1

Setting [7] is: read-out: IC50 Values (Mean ± SD; n = 3), 24 h.
Setting [8] is: read-out: IC50 Values (Mean ± SD; n = 3), 48 h.
The mark [9] stands for this setting: read-out: IC50 Values (Mean ± SD; n = 3), 72 h.

Consider “10-(4-Hydroxy-3-methoxyphenyl)-6-((2-hydroxyphenyl)amino)decan-8-one [Compound 6b]”, for which the “%HDAC Inhibition” value in assay [1] came to 64%.
On the same count and under the same terms, as for “10-(4-Hydroxy-3-methoxyphenyl)-6-((2-mercaptophenyl)amino)decan-8-one [Compound 6a]”, the figure is 54%.
Still for that read-out and setting: the result for “10-(4-Hydroxy-3-methoxyphenyl)-6-(phenylamino)decan-8-one [Compound 6c]” reads 53%.
For the molecule `N.N.[Cl][Pt][Cl]` [Cisplatin, reference compound], the IC50 is over 20 µM in the assay with H-69 cells (setting [7]); over 20 µM with H-69 cells (setting [8]); 15.8 ± 0.35 µM in the assay with H-69 cells (setting [9]); 29.2 ± 1.35 µM in assay [2] (setting [7]); 13.8 ± 0.54 µM in assay [2] (setting [8]); 10.4 ± 0.25 µM in assay [2] (setting [9]). Besides, the IC50 in assay [3] (setting [7]) was 17.32 ± 0.12 µM; in assay [3] (setting [8]) it was 11.2 ± 0.14 µM; in assay [3] (setting [9]) it was 7.57 ± 0.07 µM; in assay [4] (setting [7]) it was 21 ± 2.56 µM; in assay [4] (setting [8]), 7.61 ± 0.61 µM; in assay [4] (setting [9]), 4.98 ± 0.77 µM. In addition, the 50% inhibitory concentration (IC50) is 17.1 ± 1 µM in assay [5] (24 h); 9.97 ± 0.34 µM in assay [5] (48 h); 6.45 ± 0.12 µM in assay [5] (72 h); over 20 µM in assay [6] (24 h); 18.6 ± 0.57 µM in assay [6] (48 h); 13 ± 0.61 µM in assay [6] (72 h).
In the case of `CCCCC/C=C/C(CCc1ccc(O)c(OC)c1)=N\N` [Compound 4a, 4-((3Z,4E)-3-Hydrazonodec-4-en-1-yl)-2-methoxyphenol], the “%HDAC Inhibition” value in assay [1] is given as 73%.
On the same count and under the same terms, the result for `CCCCC/C=C/C(CCc1ccc(O)c(OC)c1)=N\Nc1ccc(C(=O)O)cc1` [Compound 4b, 4-(2-((3Z,4E)-1-(4-Hydroxy-3-methoxyphenyl)dec-4-en-3-ylidene)hydrazinyl)benzo-ic acid] reads 73%.
For `CCCCC/C=C/C(CCc1ccc(O)c(OC)c1)=N\Nc1ccccn1` [Compound 4c, 2-Methoxy-4-((3Z,4E)-3-(2-(pyridin-2-yl)hydrazono)dec-4-en-1-yl)phenol], the IC50 came out at 40 ± 1.57 µM in the assay on H-69 cells (Homo sapiens, NCI-H69, read-out: IC50 Values (Mean ± SD; n = 3), 24 h); 30.6 ± 0.82 µM with H-69 cells (Homo sapiens, NCI-H69, read-out: IC50 Values (Mean ± SD; n = 3), 48 h); 28.7 ± 0.36 µM in the assay with H-69 cells (Homo sapiens, NCI-H69, read-out: IC50 Values (Mean ± SD; n = 3), 72 h); 46.4 ± 1.3 µM in assay [2] (Homo sapiens, MCF7, read-out: IC50 Values (Mean ± SD; n = 3), 24 h); 39.4 ± 0.68 µM in assay [2] (Homo sapiens, MCF7, read-out: IC50 Values (Mean ± SD; n = 3), 48 h); 27.1 ± 0.47 µM in assay [2] (Homo sapiens, MCF7, read-out: IC50 Values (Mean ± SD; n = 3), 72 h). Moreover, the concentration for half-maximal inhibition (IC50) worked out at 69.5 ± 3.94 µM with Vero cells (24 h); 49.31 ± 0.18 µM in the assay with Vero cells (48 h); 45.2 ± 0.49 µM in the assay with Vero cells (72 h); 36.8 ± 0.89 µM in assay [3] (Homo sapiens, KKU100, read-out: IC50 Values (Mean ± SD; n = 3), 24 h); 29.7 ± 0.96 µM in assay [3] (Homo sapiens, KKU100, read-out: IC50 Values (Mean ± SD; n = 3), 48 h); 19.2 ± 0.41 µM in assay [3] (Homo sapiens, KKU100, read-out: IC50 Values (Mean ± SD; n = 3), 72 h). Besides, the IC50 was 20.2 ± 0.46 µM in assay [4] (Homo sapiens, HCT-116, read-out: IC50 Values (Mean ± SD; n = 3), 24 h); 18.4 ± 0.32 µM in assay [4] (Homo sapiens, HCT-116, read-out: IC50 Values (Mean ± SD; n = 3), 48 h); 17.2 ± 0.23 µM in assay [4] (Homo sapiens, HCT-116, read-out: IC50 Values (Mean ± SD; n = 3), 72 h); 49.3 ± 1.27 µM in assay [5] (Homo sapiens, 24 h); 33.4 ± 1.09 µM in assay [5] (Homo sapiens, 48 h); 29.3 ± 0.88 µM in assay [5] (Homo sapiens, 72 h). Moreover, the IC50 in assay [6] (Homo sapiens, 24 h) amounted to 39 ± 0.27 µM; in assay [6] (Homo sapiens, 48 h), 28.98 ± 0.26 µM; in assay [6] (Homo sapiens, 72 h), 25.9 ± 0.71 µM. Besides, in assay [1], the “%HDAC Inhibition” value is recorded as 80%.
As to `CCCCC/C=C/C(CCc1ccc(O)c(OC)c1)=N\NC1=NCC=N1` [Compound 4e, 4-((3Z,4E)-3-(2-(4H-Imidazol-2-yl)hydrazono)dec-4-en-1-yl)-2-methoxyphenol], the “%HDAC Inhibition” value in assay [1] is 73%.
The same measure, in the same setting: as for `CCCCCC1CC(CCc2ccc(O)c(OC)c2)=NN1c1ccccc1` (stereo not drawn) [Compound 5a, 2-methoxy-4-(2-(5-pentyl-1-phenyl-4,5-dihydro-1H-pyrazol-3-yl)ethyl)phenol], the figure is 74%; as for `CCCCCC1CC(CCc2ccc(O)c(OC)c2)=NN1c1ccccc1C` (stereo not drawn) [Compound 5b, 2-methoxy-4-(2-(5-pentyl-1-(o-tolyl)-4,5-dihydro-1H-pyrazol-3-yl)ethyl)phenol], 56%.
On the same count and under the same terms, the result for `CCCCCC1CC(CCc2ccc(O)c(OC)c2)=NN1c1ccccc1OC` (stereo not drawn) [Compound 5c, 2-methoxy-4-(2-(1-(2-methoxyphenyl)-5-pentyl-4,5-dihydro-1H-pyrazol-3-yl)ethyl) phenol] reads 52%; that for `CCCCCC1CC(CCc2ccc(O)c(OC)c2)=NN1c1ccc(OC)cc1` (stereo not drawn) [Compound 5d, 2-methoxy-4-(2-(1-(4-methoxyphenyl)-5-pentyl-4,5-dihydro-1H-pyrazol-3-yl)ethyl) phenol], 67%.
On the same count and under the same terms, the result for `CCCCCC1CC(CCc2ccc(O)c(OC)c2)=NN1c1ccccc1F` (stereo not drawn) [Compound 5e, 4-(2-(1-(2-fluorophenyl)-5-pentyl-4,5-dihydro-1H-pyrazol-3-yl)ethyl)-2-methoxyphenol] reads 54%; that for `CCCCCC1CC(CCc2ccc(O)c(OC)c2)=NN1c1ccc(F)cc1` (stereo not drawn) [Compound 5f, 4-(2-(1-(4-fluorophenyl)-5-pentyl-4,5-dihydro-1H-pyrazol-3-yl)ethyl)-2-methoxyphenol], 77%.
For the molecule `CCCCCC1CC(CCc2ccc(O)c(OC)c2)=NN1c1cccc(Cl)c1` (stereo not drawn) [Compound 5g, 4-(2-(1-(3-chlorophenyl)-5-pentyl-4,5-dihydro-1H-pyrazol-3-yl)ethyl)-2-methoxyphenol], the “%HDAC Inhibition” value in assay [1] is 60%.
Same read-out and setting: the result for `CCCCCC1CC(CCc2ccc(O)c(OC)c2)=NN1c1ccc(Cl)cc1` (stereo not drawn) [Compound 5h, 4-(2-(1-(4-chlorophenyl)-5-pentyl-4,5-dihydro-1H-pyrazol-3-yl)ethyl)-2-methoxyphenol] reads 68%; that for `CCCCCC1CC(CCc2ccc(O)c(OC)c2)=NN1c1cccc([N+](=O)[O-])c1` (stereo not drawn) [Compound 5i, 2-methoxy-4-(2-(1-(3-nitrophenyl)-5-pentyl-4,5-dihydro-1H-pyrazol-3-yl)ethyl)phe nol], 77%; that for `CCCCCC1CC(CCc2ccc(O)c(OC)c2)=Nc2ccccc2N1` (stereo not drawn) [Compound 7, 2-Methoxy-4-(2-(2-pentyl-2,3-dihydro-1H-benzo[b][1,4]diazepin-4-yl)ethyl)phenol], 63%.
Still for that read-out and setting: the result for `CC(/C=C/C(=O)NO)=C\[C@@H](C)C(=O)c1ccc(N(C)C)cc1` [TSA, Trichostatin A, reference compound] reads 92%.
